Data set [1] is described as follows: particle density of the crystal forms (Ultrapyknometer, or from single crystal X-ray structural analysis). In kind it is physicochemical. The following applies: for Density, calculated from SCA: calculated from single crystal X-ray structural analysis (SCA); for Density, experimental: method SOP 5024, Ultrapyknometer 1000 T. Here is the method: A DSC Pyris 1 from Perkin Elmer was used to determine the melting points. The measurements were carried out using a heating rate of 10 K min^−1. In each case, the given melting points refer to the peak maximum under the given conditions. The Raman spectra of the crystal forms were recorded using an RFS 100/S FT-Raman from Bruker (128 scans per measurement). The particle density was determined experimentally according to method SOP 5024 for determining densities using the Ultrapyknometer 1000 T from Quanta-Chrome or theoretically from the single crystal. X-ray structural analysis (SCA). The single crystal X-ray structural analysis was carried out using a P4RA four-cycle diffractometer from Siemens with rotating anode generator, graphite monochromator, scintillation counter and low-temperature unit. Measurement was carried out using molybdenum radiation of a wavelength of 0.71073 (MoKα).

Data set [2] is described as follows: thermodynamic stability of the crystal forms. Particulars: for thermodynamic stability of the crystal form: at room temperature.

The values that follow come from patent US7176226B2, “Crystal modification II of 2-[2-(1-chloro-cyclopropyl)-3-(2-chlorophenyl)-2-hydroxy-propyl]-2,4-dihydro-3H-1,2,4-triazole-3-thione” (Bayer Cropscience AG, priority 2002, dated 2007).

`OC(Cc1ccccc1Cl)(Cn1nc[nH]c1=S)C1(Cl)CC1` (stereo not shown) [form I, 2-[2-(1-chlorocyclopropyl)-3-(2-chlorophenyl)-2-hydroxypropyl]-2,4-dihydro-3H-1,2,4-triazole-3-thione, reference compound]: in data set [1], the “Density, calculated from SCA” value is on record as 1.432 Mg/m^3 and the “Density, experimental” value is 1.39 Mg/m^3. In addition, the “thermodynamic stability of the crystal form” value in data set [2] is “metastable”.

With `OC(Cc1ccccc1Cl)(Cn1nc[nH]c1=S)C1(Cl)CC1` (stereo not shown) [form II, 2-[2-(1-chlorocyclopropyl)-3-(2-chlorophenyl)-2-hydroxypropyl]-2,4-dihydro-3H-1,2,4-triazole-3-thione], in data set [1], the “Density, calculated from SCA” value is listed as 1.471 Mg/m^3 and the “Density, experimental” value is on record as 1.43 Mg/m^3. Further, in data set [2], the “thermodynamic stability of the crystal form” value is on record as “thermodynamically stable”. The “temperature below which the crystal form is stable” value in data set [2] (pressure of 1013 mbar) was “below 90 °C”.
